Measured values from patent publication US20250205208A1, “USE OF SU3327 IN PREPARATION OF MEDICAMENT FOR REDUCING CYTOTOXICITY AND NEPHROTOXICITY OF POLYMYXIN” (XIAMEN HANLIXIN PHARMACEUTICAL CO., LTD., priority 2023, published 2025).

How the values were obtained:
HEK293 cells = assay: Cell viability test by CCK-8 method; type: cell-based, Human
Protocol: Human Embryonic Kidney cells (HEK293), preserved by National Center for Veterinary Drug Safety Evaluation of China Agricultural University.
Cytotoxicity was determined by a CCK-8 method. After HEK293 cells (5×10^4 cells/well) were seeded onto 96-well tissue culture plates and cultured for 24 hours, the cells were treated with SU3327 or Polymyxin E alone or in combination, with SU3327 in a final concentration of 5 μM, 2.5 μM, 1.25 μM and 0.625 μM; Polymyxin E in a final concentration of 2 mM; combination groups of SU3327 and Polymyxin E: Polymyxin E (2 mM)+SU3327 (5 μM), Polymyxin E (2 mM)+SU3327 (2.5 μM), Polymyxin E (2 mM)+SU3327 (1.25 μM), Polymyxin E (2 mM)+SU3327 (0.625 μM), and control group (Control) 0.1% DMSO. Following continued culture for 24 h, a CCK-8 kit was used to detect the changes in cell viability.

[1] = system: mice having kidney damage induced by Polymyxin E; assay: Mouse model of nephrotoxicity by Polymyxin E: urea nitrogen and creatinine in serum; type: in vivo, C57BL/6 mice
Protocol: (§1) C57BL/6 mice, male, 8-week-old, weighing 20-22 g, purchased from Vital River Laboratory Animal Technology Co., Ltd.
(§2) The mice were housed in the National Center for Veterinary Drug Safety Evaluation of China Agricultural University, fed with routine pelleted feed and free access to water, at a controlled temperature of (22±2)° C., and a humidity of (50±10) %. Adaptive housing was performed for 1 week before experiments.
(§3) […] were randomly divided into 6 groups (n=8 in each group), as follows:
(§4) Control group: the mice were intraperitoneally injected with an equivalent amount of normal saline.
(§5) Polymyxin E model group: the mice were intraperitoneally injected with Polymyxin E
(§6) at a single dose of 10 mg/kg body weight, twice a day, with an interval of 8 hours between doses; i.e., the mice were administered with Polymyxin E in 20 mg/kg body weight per day.
(§7) SU3327 control group: the mice were intraperitoneally injected with dissolved SU3327 at a single dose of 10 mg/kg body weight, once a day for 10 straight days; i.e., the mice were administered with SU3327 in 10 mg/kg body weight per day.
(§8) SU3327 high-dose protection group: the mice were intraperitoneally injected with SU3327 at a single dose of 10 mg/kg body weight, concurrently with Polymyxin E in 10 mg/kg, twice, with an interval of 8 hours between doses; i.e., the mice were administered with SU3327 in 10 mg/kg body weight per day, concurrently with Polymyxin E in 20 mg/kg body weight per day.
as §8, with “medium-dose” for “high-dose”, “[…]” for “10”
SU3327 low-dose protection group: the mice were intraperitoneally injected with SU3327 at a single dose of 2.5 mg/kg body weight, concurrently with Polymyxin E in 10 mg/kg, twice, with an interval of 8 hours between doses; i.e., the mice were administered with SU3327 in 2.5 mg/kg body weight per day, concurrently with Polymyxin E in 20 mg/kg body weight per day. […]
The blood samples collected from the mice were centrifuged at 3000 rpm for 10 min, and the supernatant was aspirated. The changes of urea nitrogen in serum and creatinine in serum were detected by an automatic biochemical detector.

[2] = system: mice having kidney damage induced by Polymyxin E; assay: Mouse model of nephrotoxicity by Polymyxin E: kidney histopathology and semiquantitative scoring (SQS); type: in vivo, C57BL/6 mice; conditions: for pathological damage score: 10 days, P<0.001
Protocol: as §1, §2, §3, §4, §5, §6, §7, §8
as §8, with “medium-dose” for “high-dose”, “[…]” for “10”
SU3327 low-dose protection group: the mice were intraperitoneally injected with SU3327 at a single dose of 2.5 mg/kg body weight, concurrently with Polymyxin E in 10 mg/kg, twice, with an interval of 8 hours between doses; i.e., the mice were administered with SU3327 in 2.5 mg/kg body weight per day, concurrently with Polymyxin E in 20 mg/kg body weight per day.
In the experiments above, reference was made to the previously published literature by the inventors for the method of establishing the mouse model of nephrotoxicity by Polymyxin E (Dai C, Tang S, Wang Y, Velkov T, Xiao X. Baicalein acts as a nephroprotectant that ameliorates colistin-induced nephrotoxicity by activating the antioxidant defence mechanism of the kidneys and down-regulating the inflammatory response. J Antimicrob Chemother. 2017 Sep. 1; 72(9):2562-2569).
Following dosing by injection for 10 straight days, the mice were euthanized by intraperitoneal injection with an overdose of sodium pentobarbital (80 mg/kg) 24 hours post the last dosing, and blood and kidney tissues were collected quickly, the serum and tissues were processed as follows.
The isolated, fresh kidney tissues were washed with normal saline, sampled and fixed in 10% neutral formalin for 48 h, after being flushed with water, and then dehydrated, cleared, immersed in paraffin, embedded, sectioned and stained in sequence. The pathological changes in kidney tissues were observed and photographed under a microscope. HE staining: the paraffin sections were taken, and placed in an oven at a constant temperature of 60° C. for 30 min; followed by paraffin removal and dehydration with ethanol, and immersing with double distilled water; hematoxylin staining for 10 min, rinsing with tap water, and differentiation with acid alcohol; flushing with running water until the sections turned blue; 95% ethanol for 30 s, alcoholic eosin staining for 30 s, 95% ethanol for 30 s, and 100% ethanol for 30 s; clearing with Xylene, and sealing with neutral gum.
Following HE staining, damages to the renal tissues were evaluated using a semiquantitative scoring (SQS). […]

JNK = conditions: read-out: IC50 as JNK inhibitor; cited from earlier work
JNK and JIP = conditions: read-out: IC50 for inhibition of protein interaction between JNK and JIP; cited from earlier work
p38α = p38α (Homo sapiens, UniProt Q16539); conditions: cited from earlier work
Akt kinases = conditions: cited from earlier work
E. coli = conditions: laboratory tests, Collins group, Cell 2020; cited from earlier work
[3] = system: Mycobacterium tuberculosis; conditions: laboratory tests, Collins group, Cell 2020; cited from earlier work
Clostridium difficile = conditions: laboratory tests, Collins group, Cell 2020; cited from earlier work
[4] = in vivo; cited from earlier work
[5] = SU3327 at 2.5, 5 and 10 mg/kg i.p. in combination with Polymyxin E 20 mg/kg per day, 10 days
[6] = Polymyxin E 20 mg/kg per day i.p. for 10 straight days

p38α, sequence (Q16539 whole entry): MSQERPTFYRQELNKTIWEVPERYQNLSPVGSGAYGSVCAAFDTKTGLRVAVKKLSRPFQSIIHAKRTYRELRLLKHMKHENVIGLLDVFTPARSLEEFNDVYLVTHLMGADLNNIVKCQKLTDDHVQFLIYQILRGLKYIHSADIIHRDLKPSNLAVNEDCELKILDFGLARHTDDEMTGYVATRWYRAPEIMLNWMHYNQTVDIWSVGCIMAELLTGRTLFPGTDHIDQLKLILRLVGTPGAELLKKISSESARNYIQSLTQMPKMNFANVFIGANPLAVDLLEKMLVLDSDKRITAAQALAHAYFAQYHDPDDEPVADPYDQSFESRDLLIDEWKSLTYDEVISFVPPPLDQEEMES

## Nc1nnc(Sc2ncc([N+](=O)[O-])s2)s1 [SU3327]
HEK293 cells; SU3327 2.5 μM in combination with Polymyxin E 2 mM, 24 h
  cell viability: 68.5%
HEK293 cells; SU3327 (5-0.625 μM) in combination with Polymyxin E 2 mM, 24 h
  cell viability compared to treatment group with polymyxin alone: increased to some extent
HEK293 cells; SU3327 alone in 5 μM, 2.5 μM, 1.25 μM and 0.625 μM, 24 h
  cell viability compared with control group: significantly changed
[1]; [5]
  level of creatinine in the serum compared to Polymyxin E model group: significantly lowered
  level of urea nitrogen in the serum compared to Polymyxin E model group: significantly lowered
[2]; SU3327 2.5 mg/kg i.p. in combination with Polymyxin E 20 mg/kg per day
  pathological damage score: 1
[2]; SU3327 5 mg/kg i.p. in combination with Polymyxin E 20 mg/kg per day
  pathological damage score: 0.75
[2]; SU3327 10 mg/kg i.p. in combination with Polymyxin E 20 mg/kg per day
  pathological damage score: 0.5
[2]; SU3327 in combination with Polymyxin E
  pathological changes in renal tubules: remarkably improved
JNK
  IC50: 0.7 µM
JNK and JIP
  IC50: 0.239 µM
p38α
  activity for p38α: low activity
Akt kinases
  activity for Akt kinases: low activity
E. coli
  growth of E. coli: effectively prevented the growth
[3]
  killing of Mycobacterium tuberculosis: killed
Clostridium difficile
  killing of Clostridium difficile: killed

## Polymyxin E
HEK293 cells; polymyxin alone 2 mM, 24 hours
  cell viability: 55.3%
[1]; [6]
  level of BUN in the serum compared to control group: significantly up-regulated
  level of CRE in the serum compared to control group: significantly up-regulated
[2]; [6]
  average of pathological semiquantitative score: 3
  kidney pathological damages (epithelial cell shedding, necrosis, tubular casts): obvious pathological damages
[4]
  clinical incidence of nephrotoxicity: up to 60%
  clinical incidence of neurotoxicity: about 7%
  clinical incidence of symptoms from mild peripheral neurotoxicity: ≤ 100%
